From patent US8791113B2, “2,4-diaryl-substituted [1,8] naphthyridines as kinase inhibitors for use against cancer” (Merck Patent GmbH, priority 2010, dated 2014)

Assays:
[1] = test system: TGF-beta-induced phosphorylation of Smad2 (Ser465/467) and Smad3 (Ser423/425) in Mv1-Lu cells; experiment: Inhibition of Smad2/3 phosphorylation in Mv1Lu cells (PathScan Phospho-Smad2 ELISA); type: cell-based, mink Mustela vison; conditions: Neogale vison, Mv1-Lu cells, TGF-beta 1 5 ng/ml, Phospho-Smad2/3 ELISA, read-out: TβR activity (Example 51)
Description: Inhibition of Smad2/3 Phosphorylation in Mv1 Lu Cells by TGF-Beta Receptor I Kinase Inhibitors
This assay was used to determine the inhibitory potency of compounds on TGF-beta-induced phosphorylation of Smad2 (Ser465/467) and Smad3 (Ser423/425). Mv1-Lu cells (lung epithelial cell line from mink Mustela vison; ATCC number: CCL-64) were seeded in DMEM (Invitrogen) supplemented with 10% fetal bovine serum (Pan Biotech) at a defined cell density in 24-well or 96-well plates (24-well plate: 1.5×10^5 cells per well; 96-well plate: 4×10^4 cells per well). Cell cultures were incubated in DMEM at 37° C. and 10% CO2. On the next day, the medium was replaced and cells were serum-starved for 16-20 hours. The following day, serial dilutions of compounds were added to the wells, pre-incubated for 1.5 hrs before recombinant TGF-beta 1 ligand (final concentration 5 ng/ml; R&D systems) was added. After one hour of ligand stimulation, lysates were prepared and analyzed using an enzyme-linked immunosorbent assay kit (PathScan Phospho-Smad2 Kit, Cell Signaling Technologies). The ELISA detects phosphorylated Smad2 as well as phosphorylated Smad3 with the phospho-specific antibody. TGF-beta stimulated cells and unstimulated cells served as positive and negative controls (100% and background control). The concentration of the vehicle DMSO was kept constant at 0.2% (v/v) in all wells. Dose-response relationships were fitted using curve fitting algorithms of the RS1 statistics software package (Brooks Automation Inc. RS/1- Statistical Tools Handbook. Release 6.2) to determine the concentration at which half-maximal inhibition (IC50) of Smad2/3 phosphorylation was achieved.

[2] = target: T1, GST-ALK5 (TGF-beta receptor kinase) (Homo sapiens, UniProt P36897); experiment: In-vitro (enzyme) kinase flashplate assay: GST-ALK5 phosphorylation of GST-SMAD2 with 33P-ATP; type: biochemical; conditions: 384-well flashplate kinase assay, GST-ALK5 / GST-SMAD2, 33P-ATP, 30° C., 45 min; read-out: TβR activity (Example 50)
T1 sequence (P36897 34-503): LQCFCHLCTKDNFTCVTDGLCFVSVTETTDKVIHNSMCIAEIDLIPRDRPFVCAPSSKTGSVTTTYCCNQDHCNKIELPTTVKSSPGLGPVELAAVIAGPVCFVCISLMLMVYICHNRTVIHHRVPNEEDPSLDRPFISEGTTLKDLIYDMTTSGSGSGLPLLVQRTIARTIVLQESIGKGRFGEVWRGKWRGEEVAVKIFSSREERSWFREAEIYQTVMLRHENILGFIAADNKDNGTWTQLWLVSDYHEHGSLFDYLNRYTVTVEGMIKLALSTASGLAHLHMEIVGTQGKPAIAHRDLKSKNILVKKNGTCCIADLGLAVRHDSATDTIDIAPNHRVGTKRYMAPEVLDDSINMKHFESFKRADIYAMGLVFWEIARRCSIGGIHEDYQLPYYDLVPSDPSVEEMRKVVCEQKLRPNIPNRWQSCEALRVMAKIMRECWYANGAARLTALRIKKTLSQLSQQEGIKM
Description: In-vitro (Enzyme) Assay for Determination of the Efficacy of Inhibitors of the Inhibition of TGF-Beta-Mediated Effects
The kinase assay was carried out as 384-well flashplate assay. 31.2 nM of GST-ALK5, 439 nM of GST-SMAD2 and 3 mM of ATP (with 0.3 μCi of ^33P-ATP/well) were incubated in a total volume of 35 μl (20 mM of HEPES, 10 mM of MgCl2, 5 mM of MnCl2, 1 mM of DTT, 0.1% of BSA, pH 7.4) without or with test substance (5-10 concentrations) at 30° C. for 45 min. The reaction was stopped using 25 μl of 200 mM EDTA solution, filtered with suction at room temperature after 30 min, and the wells were washed with 3 times 100 μl of 0.9% NaCl solution. Radioactivity was measured in the TopCount. The IC50 values were calculated using RS1.

Structure (SMILES) | IC50 [1] [nM] | IC50 [2] [nM]
Nc1nccc2c(-c3cc(-c4ccccc4F)nc4ncccc34)ccnc12 [Compound 113, 4-[2-(2-Fluoro-phenyl)-[1,8]naphthyridin-4-yl]-[1,7]naphthyridin-8-ylamine] | < 1000 | < 1000
CCN(CC)CCOc1ncc(-c2cc(-c3cc(Cl)ccc3F)nc3ncccc23)c2ccncc12 [Compound 98, (2-{4-[2-(5-Chloro-2-fluoro-phenyl)-[1,8]naphthyridin-4-yl]-[2,7]naphthyridin-1-yloxy}-ethyl)-diethyl-amine] | < 1000 | < 1000
O=c1c2cnccc2c(-c2cc(-c3cc(Cl)ccc3F)nc3ncccc23)cn1CC(O)CO (stereo not drawn) [Compound 81, 4-[2-(5-Chloro-2-fluoro-phenyl)-[1,8]naphthyridin-4-yl]-2-(2,3-dihydroxy-propyl)-2H-[2,7]naphthyridin-1-one] | < 1000 | < 1000
COCCn1cc(-c2cc(-c3cc(Cl)ccc3F)nc3ncccc23)c2ccncc21 [Compound 5, 2-(5-Chloro-2-fluoro-phenyl)-4-[1-(2-methoxy-ethyl)-1H-pyrrolo[2,3-c]pyridin-3-yl]-[1,8]naphthyridine] | < 1000 | –
O=c1c2cnccc2c(-c2cc(-c3cc(Cl)ccc3F)nc3ncccc23)cn1CCN1CCCC1 [Compound 91, 4-[2-(5-Chloro-2-fluoro-phenyl)-[1,8]naphthyridin-4-yl]-2-(2-pyrrolidin-1-yl-ethyl)-2H-[2,7]naphthyridin-1-one] | < 1000 | < 1000
COc1nccc2c(-c3cc(-c4ccccc4F)nc4ncccc34)nccc12 [Compound 40, 2-(2-Fluoro-phenyl)-4-(5-methoxy-[2,6]naphthyridin-1-yl)-[1,8]naphthyridine] | > 10000 | > 10000
CN(C)CC(=O)Nc1nccc2c(-c3cc(-c4ccccc4F)nc4ncccc34)nccc12 [Compound 71, 2-Dimethylamino-N-{5-[2-(2-fluoro-phenyl)-[1,8]naphthyridin-4-yl]-[2,6]naphthyridin-1-yl}-acetamide] | 1000 to 10000 | 1000 to 10000
Fc1ccc(Cl)cc1-c1cc(-c2ccc(Cl)c3cnccc23)c2cccnc2n1 [Compound 83, 2-(5-Chloro-2-fluoro-phenyl)-4-(8-chloro-isoquinolin-5-yl)-[1,8]naphthyridine] | < 1000 | < 1000
Fc1ccc(Cl)cc1-c1cc(-c2c[nH]c3cnccc23)c2cccnc2n1 [Compound 1, 2-(5-Chloro-2-fluoro-phenyl)-4-(1H-pyrrolo[2,3-c]pyridin-3-yl)-[1,8]naphthyridine] | < 1000 | < 1000
Nc1nccc2c(-c3cc(-c4ccccc4F)nc4ncccc34)nccc12 [Compound 14, 5-[2-(2-Fluoro-phenyl)-[1,8]naphthyridin-4-yl]-[2,6]naphthyridin-1-ylamine] | < 1000 | < 1000
Cc1occc1-c1cc(-c2c[nH]c3cnccc23)c2cccnc2n1 [Compound 108, 2-(2-Methyl-furan-3-yl)-4-(1H-pyrrolo[2,3-c]pyridin-3-yl)-[1,8]naphthyridine] | < 1000 | < 1000
CN(C)CCOc1ccc(-c2cc(-c3cc(Cl)ccc3F)nc3ncccc23)c2ccncc12 [Compound 82, (2-{5-[2-(5-Chloro-2-fluoro-phenyl)-[1,8]naphthyridin-4-yl]-isoquinolin-8-yloxy}-ethyl)-dimethyl-amine] | < 1000 | < 1000
Nc1ccc(-c2cc(-c3cc(F)ccc3F)nc3ncccc23)c2ccncc12 [Compound 38, 5-[2-(2,5-Difluoro-phenyl)-[1,8]naphthyridin-4-yl]-isoquinolin-8-ylamine] | < 1000 | < 1000
Fc1ccccc1-c1cc(-c2ncnc3cnccc23)c2cccnc2n1 [Compound 18, 4-[2-(2-Fluoro-phenyl)-[1,8]naphthyridin-4-yl]-pyrido[3,4-d]pyrimidine] | > 10000 | 1000 to 10000
COc1ccc(-c2cc(-c3cc(F)ccc3F)nc3ncccc23)c2ccncc12 [Compound 99, 2-(2,5-Difluoro-phenyl)-4-(8-methoxy-isoquinolin-5-yl)-[1,8]naphthyridine] | < 1000 | < 1000
COc1ccc2cnccc2c1-c1cc(-c2ccccc2F)nc2ncccc12 [Compound 70, 2-(2-Fluoro-phenyl)-4-(6-methoxy-isoquinolin-5-yl)-[1,8]naphthyridine] | < 1000 | < 1000
Nc1nccc2c(-c3cc(-c4ccccc4)nc4ncccc34)nccc12 [Compound 87, 5-(2-Phenyl-[1,8]naphthyridin-4-yl)-[2,6]naphthyridin-1-ylamine] | < 1000 | < 1000
COc1ccc(-c2cc(-c3ccccc3F)nc3ncccc23)c2ccncc12 [Compound 17, 2-(2-Fluoro-phenyl)-4-(8-methoxy-isoquinolin-5-yl)-[1,8]naphthyridine] | < 1000 | < 1000
Nc1ccc2c(-c3nccc4c(N)nccc34)cc(-c3ccccc3F)nc2n1 [Compound 114, 5-(5-Amino-[2,6]naphthyridin-1-yl)-7-(2-fluoro-phenyl)-[1,8]naphthyridin-2-ylamine] | < 1000 | < 1000
CCN(CC)CCn1cc(-c2cc(-c3cc(Cl)ccc3F)nc3ncccc23)c2ccncc2c1=O [Compound 104, 4-[2-(5-Chloro-2-fluoro-phenyl)-[1,8]naphthyridin-4-yl]-2-(2-diethylamino-ethyl)-2H-[2,7]naphthyridin-1-one] | 1000 to 10000 | 1000 to 10000
Cn1cc(-c2ccc(-c3cc(-c4ccccc4F)nc4ncccc34)c3cnccc23)cn1 [Compound 64, 2-(2-Fluoro-phenyl)-4-[5-(1-methyl-1H-pyrazol-4-yl)-isoquinolin-8-yl]-[1,8]naphthyridine] | < 1000 | 1000 to 10000
Nc1ccc(-c2cc(-c3ccccc3F)nc3ncccc23)c2ccncc12 [Compound 41, 5-[2-(2-Fluoro-phenyl)-[1,8]naphthyridin-4-yl]-isoquinolin-8-ylamine] | < 1000 | –
CC(=O)Nc1nccc2c(-c3cc(-c4ccccc4F)nc4ncccc34)nccc12 [Compound 69, N-{5-[2-(2-Fluoro-phenyl)-[1,8]naphthyridin-4-yl]-[2,6]naphthyridin-1-yl}-acetamide] | – | < 1000
O=[N+]([O-])c1ccc(-c2cc(-c3ccccc3F)nc3ncccc23)c2ccncc12 [Compound 16, 2-(2-Fluoro-phenyl)-4-(8-nitro-isoquinolin-5-yl)-[1,8]naphthyridine] | < 1000 | –
Nc1ncnc2c(-c3cc(-c4ccccc4F)nc4ncccc34)nccc12 [Compound 36, 8-[2-(2-Fluoro-phenyl)-[1,8]naphthyridin-4-yl]-pyrido[3,4-d]pyrimidin-4-ylamine] | > 10000 | –
Nc1cc2c(-c3cc(-c4cc(Cl)ccc4F)nc4ncccc34)cccc2cn1 [Compound 49, 5-[2-(5-Chloro-2-fluoro-phenyl)-[1,8]naphthyridin-4-yl]-isoquinolin-3-ylamine] | > 10000 | –
Nc1ncnc2c(-c3cc(-c4ccccc4F)nc4ncccc34)cccc12 [Compound 15, 8-[2-(2-Fluoro-phenyl)-[1,8]naphthyridin-4-yl]-quinazolin-4-ylamine] | 1000 to 10000 | –
OCCOc1ccc(-c2cc(-c3ccccc3F)nc3ncccc23)c2ccncc12 [Compound 39, 2-{5-[2-(2-Fluoro-phenyl)-[1,8]naphthyridin-4-yl]-isoquinolin-8-yloxy}-ethanol] | < 1000 | –
